# Laboratory results reported in the OligoGym collection.
# Oligonucleotides are given in HELM: sugar(base)linkage, 5' to 3'; d 2'-deoxyribose, r ribose, m 2'-O-methylribose, p phosphate. ss, as = sense and antisense strand
# Target: UBE2N
# Experiment: reporter assay of Huesken 2005
# Conditions: siRNA
# Also: test concentration or dose not given here.
row,Substance,normalised inhibition (eCFP-eYFP dual reporter) [%]
1,RNA1{r(A)p.r(U)p.r(A)p.r(G)p.r(A)p.r(A)p.r(A)p.r(C)p.r(A)p.r(G)p.r(C)p.r(U)p.r(A)p.r(G)p.r(A)p.r(G)p.r(C)p.r(A)p.r(U)p.d(T)p.d(T)}|RNA2{r(A)p.r(U)p.r(G)p.r(C)p.r(U)p.r(C)p.r(U)p.r(A)p.r(G)p.r(C)p.r(U)p.r(G)p.r(U)p.r(U)p.r(U)p.r(C)p.r(U)p.r(A)p.r(U)p.d(G)p.d(G)}$$$RNA1{StrandType:ss}|RNA2{StrandType:as}$,91.8
2,RNA1{r(A)p.r(U)p.r(C)p.r(A)p.r(U)p.r(C)p.r(C)p.r(U)p.r(A)p.r(A)p.r(U)p.r(G)p.r(U)p.r(A)p.r(G)p.r(A)p.r(C)p.r(A)p.r(A)p.d(T)p.d(T)}|RNA2{r(U)p.r(U)p.r(G)p.r(U)p.r(C)p.r(U)p.r(A)p.r(C)p.r(A)p.r(U)p.r(U)p.r(A)p.r(G)p.r(G)p.r(A)p.r(U)p.r(G)p.r(A)p.r(U)p.d(A)p.d(A)}$$$RNA1{StrandType:ss}|RNA2{StrandType:as}$,46.4
3,RNA1{r(A)p.r(U)p.r(C)p.r(C)p.r(G)p.r(C)p.r(A)p.r(C)p.r(A)p.r(G)p.r(U)p.r(U)p.r(C)p.r(U)p.r(G)p.r(C)p.r(U)p.r(A)p.r(U)p.d(T)p.d(T)}|RNA2{r(A)p.r(U)p.r(A)p.r(G)p.r(C)p.r(A)p.r(G)p.r(A)p.r(A)p.r(C)p.r(U)p.r(G)p.r(U)p.r(G)p.r(C)p.r(G)p.r(G)p.r(A)p.r(U)p.d(C)p.d(T)}$$$RNA1{StrandType:ss}|RNA2{StrandType:as}$,54.2
4,RNA1{r(A)p.r(U)p.r(G)p.r(U)p.r(C)p.r(U)p.r(A)p.r(G)p.r(A)p.r(U)p.r(A)p.r(U)p.r(U)p.r(U)p.r(U)p.r(G)p.r(A)p.r(A)p.r(A)p.d(T)p.d(T)}|RNA2{r(U)p.r(U)p.r(U)p.r(C)p.r(A)p.r(A)p.r(A)p.r(A)p.r(U)p.r(A)p.r(U)p.r(C)p.r(U)p.r(A)p.r(G)p.r(A)p.r(C)p.r(A)p.r(U)p.d(A)p.d(T)}$$$RNA1{StrandType:ss}|RNA2{StrandType:as}$,75.9
5,RNA1{r(A)p.r(U)p.r(G)p.r(U)p.r(G)p.r(G)p.r(U)p.r(C)p.r(A)p.r(U)p.r(U)p.r(G)p.r(C)p.r(U)p.r(G)p.r(G)p.r(C)p.r(C)p.r(C)p.d(T)p.d(T)}|RNA2{r(G)p.r(G)p.r(G)p.r(C)p.r(C)p.r(A)p.r(G)p.r(C)p.r(A)p.r(A)p.r(U)p.r(G)p.r(A)p.r(C)p.r(C)p.r(A)p.r(C)p.r(A)p.r(U)p.d(G)p.d(A)}$$$RNA1{StrandType:ss}|RNA2{StrandType:as}$,47.1
6,RNA1{r(A)p.r(U)p.r(U)p.r(A)p.r(G)p.r(C)p.r(A)p.r(A)p.r(A)p.r(U)p.r(G)p.r(A)p.r(U)p.r(G)p.r(U)p.r(A)p.r(G)p.r(C)p.r(G)p.d(T)p.d(T)}|RNA2{r(C)p.r(G)p.r(C)p.r(U)p.r(A)p.r(C)p.r(A)p.r(U)p.r(C)p.r(A)p.r(U)p.r(U)p.r(U)p.r(G)p.r(C)p.r(U)p.r(A)p.r(A)p.r(U)p.d(G)p.d(G)}$$$RNA1{StrandType:ss}|RNA2{StrandType:as}$,34.2
7,RNA1{r(A)p.r(U)p.r(U)p.r(U)p.r(A)p.r(U)p.r(C)p.r(A)p.r(U)p.r(C)p.r(C)p.r(U)p.r(A)p.r(A)p.r(U)p.r(G)p.r(U)p.r(A)p.r(G)p.d(T)p.d(T)}|RNA2{r(C)p.r(U)p.r(A)p.r(C)p.r(A)p.r(U)p.r(U)p.r(A)p.r(G)p.r(G)p.r(A)p.r(U)p.r(G)p.r(A)p.r(U)p.r(A)p.r(A)p.r(A)p.r(U)p.d(T)p.d(T)}$$$RNA1{StrandType:ss}|RNA2{StrandType:as}$,49.2
8,RNA1{r(A)p.r(U)p.r(U)p.r(U)p.r(U)p.r(C)p.r(A)p.r(U)p.r(G)p.r(U)p.r(G)p.r(G)p.r(U)p.r(C)p.r(A)p.r(U)p.r(U)p.r(G)p.r(C)p.d(T)p.d(T)}|RNA2{r(G)p.r(C)p.r(A)p.r(A)p.r(U)p.r(G)p.r(A)p.r(C)p.r(C)p.r(A)p.r(C)p.r(A)p.r(U)p.r(G)p.r(A)p.r(A)p.r(A)p.r(A)p.r(U)p.d(A)p.d(A)}$$$RNA1{StrandType:ss}|RNA2{StrandType:as}$,47.1
9,RNA1{r(C)p.r(A)p.r(A)p.r(A)p.r(U)p.r(G)p.r(A)p.r(U)p.r(G)p.r(U)p.r(A)p.r(G)p.r(C)p.r(G)p.r(G)p.r(A)p.r(G)p.r(C)p.r(A)p.d(T)p.d(T)}|RNA2{r(U)p.r(G)p.r(C)p.r(U)p.r(C)p.r(C)p.r(G)p.r(C)p.r(U)p.r(A)p.r(C)p.r(A)p.r(U)p.r(C)p.r(A)p.r(U)p.r(U)p.r(U)p.r(G)p.d(C)p.d(T)}$$$RNA1{StrandType:ss}|RNA2{StrandType:as}$,64.2
10,RNA1{r(C)p.r(A)p.r(A)p.r(C)p.r(G)p.r(A)p.r(A)p.r(G)p.r(C)p.r(C)p.r(C)p.r(A)p.r(A)p.r(G)p.r(C)p.r(C)p.r(A)p.r(U)p.r(A)p.d(T)p.d(T)}|RNA2{r(U)p.r(A)p.r(U)p.r(G)p.r(G)p.r(C)p.r(U)p.r(U)p.r(G)p.r(G)p.r(G)p.r(C)p.r(U)p.r(U)p.r(C)p.r(G)p.r(U)p.r(U)p.r(G)p.d(G)p.d(T)}$$$RNA1{StrandType:ss}|RNA2{StrandType:as}$,94
11,RNA1{r(C)p.r(A)p.r(A)p.r(C)p.r(G)p.r(C)p.r(C)p.r(C)p.r(G)p.r(U)p.r(U)p.r(A)p.r(U)p.r(U)p.r(U)p.r(U)p.r(C)p.r(A)p.r(U)p.d(T)p.d(T)}|RNA2{r(A)p.r(U)p.r(G)p.r(A)p.r(A)p.r(A)p.r(A)p.r(U)p.r(A)p.r(A)p.r(C)p.r(G)p.r(G)p.r(G)p.r(C)p.r(G)p.r(U)p.r(U)p.r(G)p.d(C)p.d(T)}$$$RNA1{StrandType:ss}|RNA2{StrandType:as}$,87.1
12,RNA1{r(C)p.r(A)p.r(G)p.r(U)p.r(G)p.r(G)p.r(A)p.r(A)p.r(G)p.r(A)p.r(C)p.r(C)p.r(A)p.r(A)p.r(C)p.r(G)p.r(A)p.r(A)p.r(G)p.d(T)p.d(T)}|RNA2{r(C)p.r(U)p.r(U)p.r(C)p.r(G)p.r(U)p.r(U)p.r(G)p.r(G)p.r(U)p.r(C)p.r(U)p.r(U)p.r(C)p.r(C)p.r(A)p.r(C)p.r(U)p.r(G)p.d(C)p.d(T)}$$$RNA1{StrandType:ss}|RNA2{StrandType:as}$,78
13,RNA1{r(C)p.r(A)p.r(G)p.r(U)p.r(U)p.r(C)p.r(C)p.r(U)p.r(G)p.r(G)p.r(C)p.r(A)p.r(U)p.r(C)p.r(A)p.r(A)p.r(A)p.r(G)p.r(C)p.d(T)p.d(T)}|RNA2{r(G)p.r(C)p.r(U)p.r(U)p.r(U)p.r(G)p.r(A)p.r(U)p.r(G)p.r(C)p.r(C)p.r(A)p.r(G)p.r(G)p.r(A)p.r(A)p.r(C)p.r(U)p.r(G)p.d(G)p.d(T)}$$$RNA1{StrandType:ss}|RNA2{StrandType:as}$,61.4
14,RNA1{r(C)p.r(A)p.r(U)p.r(A)p.r(G)p.r(A)p.r(A)p.r(A)p.r(C)p.r(A)p.r(G)p.r(C)p.r(U)p.r(A)p.r(G)p.r(A)p.r(G)p.r(C)p.r(A)p.d(T)p.d(T)}|RNA2{r(U)p.r(G)p.r(C)p.r(U)p.r(C)p.r(U)p.r(A)p.r(G)p.r(C)p.r(U)p.r(G)p.r(U)p.r(U)p.r(U)p.r(C)p.r(U)p.r(A)p.r(U)p.r(G)p.d(G)p.d(C)}$$$RNA1{StrandType:ss}|RNA2{StrandType:as}$,95.3
